According to ChEMBL document CHEMBL1135650, “Synthesis of classical and nonclassical, partially restricted, linear, tricyclic 5-deaza antifolates” (J Med Chem, 2002):

Key:
Dihydrofolate reductase [1] = target: T1, Dihydrofolate reductase (Pneumocystis carinii, UniProt P16184)
T1 sequence (P16184 whole entry): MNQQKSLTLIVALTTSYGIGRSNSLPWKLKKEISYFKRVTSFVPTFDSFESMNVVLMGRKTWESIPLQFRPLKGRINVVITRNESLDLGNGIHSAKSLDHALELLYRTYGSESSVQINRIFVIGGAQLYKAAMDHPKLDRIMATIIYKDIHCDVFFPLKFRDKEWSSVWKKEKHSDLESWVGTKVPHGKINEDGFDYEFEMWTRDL
Description: Inhibitory activity against pneumocystis carinii Dihydrofolate reductase

[2] = target: T2, Bifunctional dihydrofolate reductase-thymidylate synthase (Toxoplasma gondii, UniProt Q07422)
T2 sequence (Q07422 whole entry): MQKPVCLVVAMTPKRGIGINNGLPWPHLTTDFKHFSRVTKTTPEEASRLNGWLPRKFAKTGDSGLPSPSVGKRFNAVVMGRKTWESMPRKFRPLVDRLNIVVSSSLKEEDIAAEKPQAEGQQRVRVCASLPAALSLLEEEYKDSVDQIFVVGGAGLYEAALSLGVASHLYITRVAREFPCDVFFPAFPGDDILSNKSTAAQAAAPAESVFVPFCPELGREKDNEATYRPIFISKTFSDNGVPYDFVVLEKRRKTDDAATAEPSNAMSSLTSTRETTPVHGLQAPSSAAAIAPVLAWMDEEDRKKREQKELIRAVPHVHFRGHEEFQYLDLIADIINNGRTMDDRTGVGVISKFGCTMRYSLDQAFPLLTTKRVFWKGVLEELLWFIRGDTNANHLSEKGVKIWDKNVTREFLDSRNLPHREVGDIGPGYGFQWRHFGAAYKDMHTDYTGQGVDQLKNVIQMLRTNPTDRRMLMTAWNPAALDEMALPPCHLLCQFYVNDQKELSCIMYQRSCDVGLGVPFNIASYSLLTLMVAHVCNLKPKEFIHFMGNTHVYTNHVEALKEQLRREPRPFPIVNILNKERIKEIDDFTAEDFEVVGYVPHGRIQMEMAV
Description: Inhibitory activity against Toxoplasma gondii (tg) Dihydrofolate reductase (DHFR)

Dihydrofolate reductase [3] = target: T3, Dihydrofolate reductase (Homo sapiens, UniProt P00374)
T3 sequence (P00374 whole entry): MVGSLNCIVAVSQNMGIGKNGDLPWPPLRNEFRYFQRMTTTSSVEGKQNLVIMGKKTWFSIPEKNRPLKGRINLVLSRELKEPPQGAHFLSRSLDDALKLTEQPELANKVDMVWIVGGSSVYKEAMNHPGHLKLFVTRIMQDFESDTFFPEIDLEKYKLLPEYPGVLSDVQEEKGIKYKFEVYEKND
Description: Inhibitory activity against recombinant human Dihydrofolate reductase

[4] = Kinetic parameter Vmax of the compound; assay type: ADME
[5] = Kinetic constant Vmax relative to aminopterin; assay type: ADME
[6] = Concentration required to decrease cell growth by 50% in methotrexate-resistant CCRF-CEM human leukemia subline (R2); assay type: functional, cell-based
[7] = Concentration required to decrease cell growth by 50% in methotrexate-resistant CCRF-CEM human leukemia subline (R30dm); assay type: functional, cell-based
CCRF-CEM = test: Concentration required to decrease cell growth by 50% in CCRF-CEM human leukemia cell line; assay type: functional, cell-based
[8] = target: T4, Dihydrofolate reductase (Pneumocystis carinii) (UniProt P16184); test: Percent Inhibition activity against pneumocystis carinii Dihydrofolate reductase; details: concentration not given here
T4 sequence (whole entry): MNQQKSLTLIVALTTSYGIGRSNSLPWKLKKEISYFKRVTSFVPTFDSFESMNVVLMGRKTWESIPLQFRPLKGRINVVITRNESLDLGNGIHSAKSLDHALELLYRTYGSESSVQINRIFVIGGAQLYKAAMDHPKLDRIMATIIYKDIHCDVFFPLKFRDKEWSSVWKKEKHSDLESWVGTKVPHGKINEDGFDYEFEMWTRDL

[9] = test system: Panel leukemia (Carcinoma cell lines); test: In vitro inhibitory activity against the growth of tumor cells in leukemia cells;Value ranges from (10e-6 to 10e-7); assay type: functional; details: Homo sapiens
[10] = Concentration required to decrease cell growth by 50% in methotrexate-resistant CCRF-CEM human leukemia subline (R1); assay type: functional, cell-based
[11] = Selectivity ratio as the ratio of IC50 value against recombinant human (rh) DHFR to that of Escherichia coli (ec) DHFR.; assay type: functional
[12] = Selectivity ratio as the ratio of IC50 value against recombinant human (rh) DHFR to that of pneumocystis carinii (pc ) DHFR.; assay type: functional
[13] = Selectivity ratio as the ratio of IC50 value against recombinant human (rh) DHFR to that of Toxoplasma gondii (tg) DHFR.; assay type: functional
[14] = substrate: Nc1nc(N)c2cc3c(nc2n1)CCN(Cc1ccc(C(=O)N[C@@H](CCC(=O)O)C(=O)O)cc1)C3; test: (§1) Ability to act as a substrate for human folyglutamate synthetase (FPGS)
[15] = substrate: Nc1nc(N)c2nc(CNc3ccc(C(=O)N[C@@H](CCC(=O)O)C(=O)O)cc3)cnc2n1; test: as §1

In the case of `Nc1nc(N)c2cc3c(nc2n1)CCN(Cc1ccc(Cl)cc1Cl)C3`, the IC50 (Dihydrofolate reductase [1]) is reported as 4 µM, the IC50 [2] is reported as 2.1 µM and the IC50 (Dihydrofolate reductase [3]) is reported as 1.3 µM.

`Nc1nc(N)c2nc(CNc3ccc(C(=O)N[C@@H](CCC(=O)O)C(=O)O)cc3)cnc2n1` [AMINOPTERIN] showed a Vmax [4] of 1.

`CN(Cc1cnc2nc(N)nc(N)c2n1)c1ccc(C(=O)N[C@@H](CCC(=O)O)C(=O)O)cc1` [METHOTREXATE] gave a Vmax [5] of 0.82, an EC50 [6] of 1.7 µM and an EC50 [7] of 0.016 µM. For the same molecule, the EC50 (CCRF-CEM) was 0.012 µM.

For `COc1ccc(CN2CCc3nc4nc(N)nc(N)c4cc3C2)cc1`, the inhibition [8] was 35%, the IC50 (Dihydrofolate reductase [1]) was > 15 µM and the IC50 [2] was 2.9 µM. For the same molecule, the IC50 (Dihydrofolate reductase [3]) was 27 µM.

In the case of `Nc1nc(N)c2cc3c(nc2n1)CCN(Cc1ccc(C(=O)N[C@@H](CCC(=O)O)C(=O)O)cc1)C3`, the Vmax rel [5] is reported as 1.07, the GI50 [9] is reported as 1 µM and the EC50 [10] is reported as > 10 µM. The EC50 [6] was > 10 µM, the EC50 [7] was 1.9 µM and the EC50 (CCRF-CEM) was 0.771 µM. For the same molecule, the IC50 (Dihydrofolate reductase [1]) was 1.8 µM and the IC50 (Dihydrofolate reductase [3]) was 5.4 µM.

In the case of `Nc1nc(N)c2cc3c(nc2n1)CCN(Cc1ccc(Cl)c(Cl)c1)C3`, the Ratio [11] is reported as > 8.6, the Ratio [12] is reported as > 5.2 and the Ratio [13] is reported as > 5. For the same molecule, the IC50 (Dihydrofolate reductase [1]) was 5 µM, the IC50 [2] was 5.1 µM and the IC50 (Dihydrofolate reductase [3]) was > 26 µM.

With `Nc1nc(N)c2cc3c(nc2n1)CCN(Cc1ccccc1)C3` the GI50 [9] was 1 µM, the IC50 (Dihydrofolate reductase [1]) was 16 µM and the IC50 [2] was 1.4 µM. The IC50 (Dihydrofolate reductase [3]) was 32 µM.

`Nc1nc(N)c2cc3c(nc2n1)CCN(C(=O)OCc1ccccc1)C3` gave an inhibition [8] of 35%, a GI50 [9] of 1 µM and a Ratio [11] of 10. For the same molecule, the Ratio [13] was 1.3, the IC50 (Dihydrofolate reductase [1]) was > 15 µM and the IC50 [2] was 22 µM. For the same molecule, the IC50 (Dihydrofolate reductase [3]) was 30 µM.

Molecule `COc1cc(CN2CCc3nc4nc(N)nc(N)c4cc3C2)cc(OC)c1` has an IC50 (Dihydrofolate reductase [1]) of 14 µM, an IC50 [2] of 2.7 µM and an IC50 (Dihydrofolate reductase [3]) of 22 µM.

B1: Folylpolyglutamate synthase, mitochondrial (Homo sapiens), Q05932 (protein)
chain: MSRARSHLRAALFLAAASARGITTQVAARRGLSAWPVPQEPSMEYQDAVRMLNTLQTNAGYLEQVKRQRGDPQTQLEAMELYLARSGLQVEDLDRLNIIHVTGTKGKGSTCAFTECILRSYGLKTGFFSSPHLVQVRERIRINGQPISPELFTKYFWRLYHRLEETKDGSCVSMPPYFRFLTLMAFHVFLQEKVDLAVVEVGIGGAYDCTNIIRKPVVCGVSSLGIDHTSLLGDTVEKIAWQKGGIFKQGVPAFTVLQPEGPLAVLRDRAQQISCPLYLCPMLEALEEGGPPLTLGLEGEHQRSNAALALQLAHCWLQRQDRHGAGEPKASRPGLLWQLPLAPVFQPTSHMRLGLRNTEWPGRTQVLRRGPLTWYLDGAHTASSAQACVRWFRQALQGRERPSGGPEVRVLLFNATGDRDPAALLKLLQPCQFDYAVFCPNLTEVSSTGNADQQNFTVTLDQVLLRCLEHQQHWNHLDEEQASPDLWSAPSPEPGGSASLLLAPHPPHTCSASSLVFSCISHALQWISQGRDPIFQPPSPPKGLLTHPVAHSGASILREAAAIHVLVTGSLHLVGGVLKLLEPALSQ
Work on B1 yielded a Km [14] of 27.3 µM and a Km [15] of 2.15 µM.
